# Data published in patent US5843954A, “Camptothecin derivatives, preparations thereof and antitumor agents” (priority 1994, dated 1998).
# Structures can show the parent of a compound that is named as a salt.
# Tested on: not listed separately
# Experiment: Antitumor activity for L1210 (life prolonging effect, mouse leukemia transplanted intraperitoneally)
# Type: in vivo
# Details: mouse, in vivo, ip; numerator of therapeutic index; i.p. total dose; read-out: Maximum tolerable dose
# Method: (§1) 5×10^5 cells of mouse leukemia L1210 were transplanted intraperitoneally to a group of six female CDF1 mice (7 weeks old, body weight 17-19 g). The test compound was administered intraperitoneally on day 1, 5 and 9 and its life prolonging effect was observed.
# (§2) In a case of the administration of a test compound as an acid addition salt the test compound was dissolved in water. The total administration amount was 1.56 mg/kg-400 mg/kg. The antitumor activity was expressed by the value (T/C%) wherein T denotes the mean survival days in the drug administered group and C denotes those in the non administered group. In case of equal to or more than 125% the drug is considered to be effective.
row,Compound,MTD
1,CCc1c2c(nc3ccc(O)cc13)-c1cc([C@@](O)(CC)C(=O)NCCN(C)C)c(COC(=O)C(C)C)c(=O)n1C2 [Compound C46],400 mg/kg
2,CCc1c2c(nc3cc(F)c(C)cc13)-c1cc([C@@](O)(CC)C(=O)NCCN(C)C)c(COC(=O)c3ccncc3)c(=O)n1C2 [Compound C42],12.5 mg/kg
3,CCc1c2c(nc3ccc(O)cc13)-c1cc([C@@](O)(CC)C(=O)NCCN(C)C)c(COC(C)=O)c(=O)n1C2 [Compound C45],400 mg/kg
4,CCc1c2c(nc3cc(F)ccc13)-c1cc([C@@](O)(CC)C(=O)NCCN(C)C)c(COC(=O)c3ccncc3)c(=O)n1C2 [Compound C41],25 mg/kg
5,"CC[C@@](O)(C(=O)O)c1cc2n(c(=O)c1CO)Cc1cc3ccccc3nc1-2 [CPT-Na salt, reference compound]",60 mg/kg
6,CCc1c2c(nc3ccc(Cl)cc13)-c1cc([C@@](O)(CC)C(=O)NCCN(C)C)c(COC(=O)c3ccncc3)c(=O)n1C2 [Compound C40],6.25 mg/kg
7,CCc1c2c(nc3cc(F)c(OC)cc13)-c1cc([C@@](O)(CC)C(=O)NCCN(C)C)c(COC(=O)c3ccncc3)c(=O)n1C2 [Compound C43],6.25 mg/kg
8,CCOCCC(=O)OCc1c([C@@](O)(CC)C(=O)NCCN(C)C)cc2n(c1=O)Cc1c-2nc2ccc(O)cc2c1CC [Compound C47],200 mg/kg

# Tested on: mouse leukemia L1210
# Experiment: as above
# Type: in vivo
# Details: CDF1 mice, i.p. on day 1, 5 and 9; total dose
# Method: as §1, §2
row,Compound,Optimum dose: Total dose
1,"CC[C@@](O)(C(=O)O)c1cc2n(c(=O)c1CO)Cc1cc3ccccc3nc1-2 [CPT-Na salt, reference compound]",60 mg/kg

# Same assay, conditions: Mus musculus, L1210, ip; denominator of therapeutic index; i.p. total dose; read-out: Minimum effective dose
row,Compound,minimal effective dose
1,CCc1c2c(nc3ccc(O)cc13)-c1cc([C@@](O)(CC)C(=O)NCCN(C)C)c(COC(=O)C(C)C)c(=O)n1C2 [Compound C46],25 mg/kg
2,CCc1c2c(nc3cc(F)c(C)cc13)-c1cc([C@@](O)(CC)C(=O)NCCN(C)C)c(COC(=O)c3ccncc3)c(=O)n1C2 [Compound C42],1.56 mg/kg
3,CCc1c2c(nc3ccc(O)cc13)-c1cc([C@@](O)(CC)C(=O)NCCN(C)C)c(COC(C)=O)c(=O)n1C2 [Compound C45],100 mg/kg
4,CCc1c2c(nc3cc(F)ccc13)-c1cc([C@@](O)(CC)C(=O)NCCN(C)C)c(COC(=O)c3ccncc3)c(=O)n1C2 [Compound C41],< 1.56 mg/kg
5,CCc1c2c(nc3ccc(Cl)cc13)-c1cc([C@@](O)(CC)C(=O)NCCN(C)C)c(COC(=O)c3ccncc3)c(=O)n1C2 [Compound C40],1.56 mg/kg
6,CCc1c2c(nc3cc(F)c(OC)cc13)-c1cc([C@@](O)(CC)C(=O)NCCN(C)C)c(COC(=O)c3ccncc3)c(=O)n1C2 [Compound C43],1.56 mg/kg
7,CCOCCC(=O)OCc1c([C@@](O)(CC)C(=O)NCCN(C)C)cc2n(c1=O)Cc1c-2nc2ccc(O)cc2c1CC [Compound C47],50 mg/kg

# Same assay, conditions: at optimum dose; group of six female CDF1 mice
row,Compound,40-day survivors
1,CCc1c2c(nc3ccc(O)cc13)-c1cc([C@@](O)(CC)C(=O)NCCN(C)C)c(COC(=O)C(C)C)c(=O)n1C2 [Compound C46],0/6
2,CCc1c2c(nc3cc(F)c(C)cc13)-c1cc([C@@](O)(CC)C(=O)NCCN(C)C)c(COC(=O)c3ccncc3)c(=O)n1C2 [Compound C42],2/6
3,CCc1c2c(nc3ccc(O)cc13)-c1cc([C@@](O)(CC)C(=O)NCCN(C)C)c(COC(C)=O)c(=O)n1C2 [Compound C45],0/6
4,CCc1c2c(nc3cc(F)ccc13)-c1cc([C@@](O)(CC)C(=O)NCCN(C)C)c(COC(=O)c3ccncc3)c(=O)n1C2 [Compound C41],2/6
5,"CC[C@@](O)(C(=O)O)c1cc2n(c(=O)c1CO)Cc1cc3ccccc3nc1-2 [CPT-Na salt, reference compound]",0/6
6,CCc1c2c(nc3ccc(Cl)cc13)-c1cc([C@@](O)(CC)C(=O)NCCN(C)C)c(COC(=O)c3ccncc3)c(=O)n1C2 [Compound C40],1/6
7,CCc1c2c(nc3cc(F)c(OC)cc13)-c1cc([C@@](O)(CC)C(=O)NCCN(C)C)c(COC(=O)c3ccncc3)c(=O)n1C2 [Compound C43],2/6
8,CCOCCC(=O)OCc1c([C@@](O)(CC)C(=O)NCCN(C)C)cc2n(c1=O)Cc1c-2nc2ccc(O)cc2c1CC [Compound C47],0/6

# Same assay, conditions: at optimum dose; i.p. on day 1, 5 and 9; mean survival days treated/non administered; >=125% effective
row,Compound,T/C %
1,"CC[C@@](O)(C(=O)O)c1cc2n(c(=O)c1CO)Cc1cc3ccccc3nc1-2 [CPT-Na salt, reference compound]",203%

# Same assay, conditions: denominator of therapeutic index; i.p. total dose
row,Compound,Minimum effective dose
1,"CC[C@@](O)(C(=O)O)c1cc2n(c(=O)c1CO)Cc1cc3ccccc3nc1-2 [CPT-Na salt, reference compound]",10 mg/kg

# Same assay, conditions: i.p., L1210, CDF1 mice
row,Compound,Therapeutic Index (Maximum tolerable dose/Minimum effective dose)
1,CCc1c2c(nc3ccc(O)cc13)-c1cc([C@@](O)(CC)C(=O)NCCN(C)C)c(COC(=O)C(C)C)c(=O)n1C2 [Compound C46],16
2,CCc1c2c(nc3cc(F)c(C)cc13)-c1cc([C@@](O)(CC)C(=O)NCCN(C)C)c(COC(=O)c3ccncc3)c(=O)n1C2 [Compound C42],> 8
3,CCc1c2c(nc3ccc(O)cc13)-c1cc([C@@](O)(CC)C(=O)NCCN(C)C)c(COC(C)=O)c(=O)n1C2 [Compound C45],4
4,CCc1c2c(nc3cc(F)ccc13)-c1cc([C@@](O)(CC)C(=O)NCCN(C)C)c(COC(=O)c3ccncc3)c(=O)n1C2 [Compound C41],> 16
5,"CC[C@@](O)(C(=O)O)c1cc2n(c(=O)c1CO)Cc1cc3ccccc3nc1-2 [CPT-Na salt, reference compound]",6
6,CCc1c2c(nc3ccc(Cl)cc13)-c1cc([C@@](O)(CC)C(=O)NCCN(C)C)c(COC(=O)c3ccncc3)c(=O)n1C2 [Compound C40],4
7,CCc1c2c(nc3cc(F)c(OC)cc13)-c1cc([C@@](O)(CC)C(=O)NCCN(C)C)c(COC(=O)c3ccncc3)c(=O)n1C2 [Compound C43],> 4
8,CCOCCC(=O)OCc1c([C@@](O)(CC)C(=O)NCCN(C)C)cc2n(c1=O)Cc1c-2nc2ccc(O)cc2c1CC [Compound C47],4

# Tested on: not listed separately
# Experiment: Acute toxicity test by intraperitoneal administration
# Details: mouse, in vivo, ip, ICR male mice, 1 week observation
# Method: Acute toxicity test was conducted by intraperitoneal administration using a group of twenty ICR male mice (4 weeks old, body weight around 20 g).
# LD50 value was calculated by the Richfield-Willcokson method from a lethal ratio observing the fate of mice during 1 week after administration of a test compound.
row,Compound,LD50 at 168 h
1,CCc1c2c(nc3ccc(O)cc13)-c1cc([C@@](O)(CC)C(=O)NCCN(C)C)c(COC(=O)C(C)C)c(=O)n1C2 [Compound C46],478 mg/kg
2,CCc1c2c(nc3cc(F)c(C)cc13)-c1cc([C@@](O)(CC)C(=O)NCCN(C)C)c(COC(=O)c3ccncc3)c(=O)n1C2 [Compound C42],310 mg/kg
3,CCc1c2c(nc3ccc(O)cc13)-c1cc([C@@](O)(CC)C(=O)NCCN(C)C)c(COC(C)=O)c(=O)n1C2 [Compound C45],376 mg/kg
4,CCc1c2c(nc3cc(F)ccc13)-c1cc([C@@](O)(CC)C(=O)NCCN(C)C)c(COC(=O)c3ccncc3)c(=O)n1C2 [Compound C41],220 mg/kg
5,"CC[C@@](O)(C(=O)O)c1cc2n(c(=O)c1CO)Cc1cc3ccccc3nc1-2 [CPT-Na salt, reference compound]",227 mg/kg
6,CCc1c2c(nc3ccc(Cl)cc13)-c1cc([C@@](O)(CC)C(=O)NCCN(C)C)c(COC(=O)c3ccncc3)c(=O)n1C2 [Compound C40],213 mg/kg
7,CCc1c2c(nc3cc(F)c(OC)cc13)-c1cc([C@@](O)(CC)C(=O)NCCN(C)C)c(COC(=O)c3ccncc3)c(=O)n1C2 [Compound C43],165 mg/kg
8,CCOCCC(=O)OCc1c([C@@](O)(CC)C(=O)NCCN(C)C)cc2n(c1=O)Cc1c-2nc2ccc(O)cc2c1CC [Compound C47],471 mg/kg
